Common to all, as to assay type: in vivo
The test system of experiment [1] is Lindernia procumbens. As to the kind of experiment: Herbicidal efficacy on paddy field weeds of pre-emergence stage (Pre), Test Example 1. The following applies: 1000 g/ha as active ingredient, examined after 21 days. Summed up: (§1)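 Pre-emergence paddy test: 1000 g/ha active ingredient, formulated and water-diluted, dropped onto 5 cm floodwater one day after sowing both weeds in clay loam. After 21 days in greenhouse, inhibition relative to untreated control rated on 0 (0%) to 5 (100%) scale.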

The subject of experiment [2] is Scirpus juncoides. The experiment is described as above. The following applies: 1000 g/ha as active ingredient, examined after 21 days. Summed up:
as §1

Experiment [3] has as its system Echinochloa crus-galli. As to the kind of experiment: Herbicidal effect on paddy field weeds of post-emergence stage (Post), Test Example 2. The following applies: one-leaf stage, 1000 g/ha as active ingredient, examined after 21 days. Summed up:
(§2)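 Post-emergence paddy test: formulated compound added to 5 cm standing water at 1000 g/ha a.i. when weeds reached one-leaf stage in clay loam pots in greenhouse. Growth inhibition rated 21 days later versus untreated control on a 0 (0%) to 5 (100%) scale.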

Experiment [4] deals with Lindernia procumbens. The description is as above. The following applies: one-leaf stage, 1000 g/ha as active ingredient, examined after 21 days. Summed up: as §2
For experiment [5], the system named is Scirpus juncoides. Described as above. The following applies: one-leaf stage, 1000 g/ha as active ingredient, examined after 21 days. Summed up:
as §2

Regarding `CC(C)(C)COC(=O)N(c1ccccc1CN1CCC(C)(C)OC1=S)S(=O)(=O)C(F)(F)F` [Compound 1-64], in experiment [1], the “Lindernia procumbens pre (herbicidal effect)” value (“Lindernia procumbens pre” below) is 4 (90%-99% herbicidal effect, phytotoxicity). For the same compound, the “Scirpus juncoides pre (herbicidal effect)” value (from here on “Scirpus juncoides pre”) in experiment [2] is 4 (90%-99% herbicidal effect, phytotoxicity). Also, the “Echinochloa crus-galli post (herbicidal effect)” value (“Echinochloa crus-galli post” below) in experiment [3] was 4 (90%-99% herbicidal effect, phytotoxicity). Further, the “Lindernia procumbens post (herbicidal effect)” value (“Lindernia procumbens post” for short) in experiment [4] is on record as 4 (90%-99% herbicidal effect, phytotoxicity). Further, the “Scirpus juncoides post (herbicidal effect)” value (“Scirpus juncoides post” below) in experiment [5] is 4 (90%-99% herbicidal effect, phytotoxicity).
Turning to `CC(C)(C)COC(=O)N(c1ccccc1CN1CCC(C)(C2CC2)OC1=O)S(=O)(=O)C(F)(F)F` (centres unmarked) [Compound 1-131], in experiment [1], the “Lindernia procumbens pre” value is reported as 4 (90%-99% herbicidal effect, phytotoxicity). For the same compound, in experiment [2], the “Scirpus juncoides pre” value was 4 (90%-99% herbicidal effect, phytotoxicity). Besides, in experiment [3], the “Echinochloa crus-galli post” value was 4 (90%-99% herbicidal effect, phytotoxicity). For the same compound, the “Lindernia procumbens post” value in experiment [4] is 4 (90%-99% herbicidal effect, phytotoxicity). The “Scirpus juncoides post” value in experiment [5] is recorded as 4 (90%-99% herbicidal effect, phytotoxicity).
Regarding `CCOC(=O)N(c1ccccc1CN1CCCCOC1=S)S(=O)(=O)C(F)(F)F` [2-14], in experiment [1], the “Lindernia procumbens pre” value is 4 (90%-99% herbicidal effect, phytotoxicity). Moreover, the “Scirpus juncoides pre” value in experiment [2] is given as 4 (90%-99% herbicidal effect, phytotoxicity). In experiment [3], the “Echinochloa crus-galli post” value was 4 (90%-99% herbicidal effect, phytotoxicity). In experiment [4], the “Lindernia procumbens post” value is 4 (90%-99% herbicidal effect, phytotoxicity). Besides, the “Scirpus juncoides post” value in experiment [5] is given as 4 (90%-99% herbicidal effect, phytotoxicity).
Consider `CC(C)COC(=O)N(c1ccccc1CN1CCC(C)(C2CCC2)OC1=O)S(=O)(=O)C(F)(F)F` (centres unmarked) [Compound 1-387], for which the “Lindernia procumbens pre” value in experiment [1] was 5 (100% herbicidal effect, phytotoxicity). Further, the “Scirpus juncoides pre” value in experiment [2] was 5 (100% herbicidal effect, phytotoxicity). For the same compound, in experiment [3], the “Echinochloa crus-galli post” value is given as 5 (100% herbicidal effect, phytotoxicity). The “Lindernia procumbens post” value in experiment [4] is 5 (100% herbicidal effect, phytotoxicity). In experiment [5], the “Scirpus juncoides post” value is recorded as 5 (100% herbicidal effect, phytotoxicity).
Consider `CCOC(=O)N(c1ccccc1CN1CCC(C)(c2ccccc2F)OC1=O)S(=O)(=O)C(F)(F)F` (racemic) [Compound 1-430], for which the “Lindernia procumbens pre” value in experiment [1] is given as 5 (100% herbicidal effect, phytotoxicity). Also, the “Scirpus juncoides pre” value in experiment [2] is 5 (100% herbicidal effect, phytotoxicity). Besides, in experiment [3], the “Echinochloa crus-galli post” value is listed as 4 (90%-99% herbicidal effect, phytotoxicity). Further, the “Lindernia procumbens post” value in experiment [4] is given as 5 (100% herbicidal effect, phytotoxicity). Moreover, the “Scirpus juncoides post” value in experiment [5] is recorded as 4 (90%-99% herbicidal effect, phytotoxicity).
As to `CCC1(CC)CCN(Cc2ccccc2N(C(=O)OCC(C)(C)C)S(=O)(=O)C(F)(F)F)C(=S)O1` [Compound 1-120], the “Lindernia procumbens pre” value in experiment [1] is listed as 4 (90%-99% herbicidal effect, phytotoxicity). For the same compound, in experiment [2], the “Scirpus juncoides pre” value was 4 (90%-99% herbicidal effect, phytotoxicity). Also, the “Echinochloa crus-galli post” value in experiment [3] is reported as 4 (90%-99% herbicidal effect, phytotoxicity). The “Lindernia procumbens post” value in experiment [4] is on record as 4 (90%-99% herbicidal effect, phytotoxicity). Moreover, the “Scirpus juncoides post” value in experiment [5] is listed as 4 (90%-99% herbicidal effect, phytotoxicity).
For `CC1(C2CC2)CCN(Cc2ccccc2NS(=O)(=O)C(F)(F)F)C(=O)O1` (centres unmarked) [Compound 1-125], in experiment [1], the “Lindernia procumbens pre” value is 4 (90%-99% herbicidal effect, phytotoxicity). Moreover, the “Scirpus juncoides pre” value in experiment [2] was 4 (90%-99% herbicidal effect, phytotoxicity). The “Echinochloa crus-galli post” value in experiment [3] was 4 (90%-99% herbicidal effect, phytotoxicity). Besides, the “Lindernia procumbens post” value in experiment [4] is recorded as 4 (90%-99% herbicidal effect, phytotoxicity). In addition, the “Scirpus juncoides post” value in experiment [5] is on record as 4 (90%-99% herbicidal effect, phytotoxicity).
As to `CCCC1(CC)CCN(Cc2ccccc2N(C(=O)Oc2ccccc2)S(=O)(=O)C(F)(F)F)C(=O)O1` (racemic) [Compound 1-501], the “Lindernia procumbens pre” value in experiment [1] is 5 (100% herbicidal effect, phytotoxicity). The “Scirpus juncoides pre” value in experiment [2] was 5 (100% herbicidal effect, phytotoxicity). In addition, in experiment [3], the “Echinochloa crus-galli post” value is listed as 5 (100% herbicidal effect, phytotoxicity). Moreover, the “Lindernia procumbens post” value in experiment [4] is recorded as 5 (100% herbicidal effect, phytotoxicity). Besides, in experiment [5], the “Scirpus juncoides post” value is reported as 4 (90%-99% herbicidal effect, phytotoxicity).
In the case of `CCCCCOC(=O)N(c1ccccc1CN1CCC(C)(C)OC1=O)S(=O)(=O)C(F)(F)F` [Compound 1-52], the “Lindernia procumbens pre” value in experiment [1] is given as 4 (90%-99% herbicidal effect, phytotoxicity). Besides, in experiment [2], the “Scirpus juncoides pre” value was 4 (90%-99% herbicidal effect, phytotoxicity). The “Echinochloa crus-galli post” value in experiment [3] was 4 (90%-99% herbicidal effect, phytotoxicity). Besides, the “Lindernia procumbens post” value in experiment [4] is reported as 4 (90%-99% herbicidal effect, phytotoxicity). Moreover, the “Scirpus juncoides post” value in experiment [5] is listed as 4 (90%-99% herbicidal effect, phytotoxicity).
On to `CC(C)COC(=O)N(c1ccccc1CN1CCC(C)(C)OC1=S)S(=O)(=O)C(F)(F)F` [Compound 1-63], for which the “Lindernia procumbens pre” value in experiment [1] is listed as 4 (90%-99% herbicidal effect, phytotoxicity). Also, the “Scirpus juncoides pre” value in experiment [2] is 4 (90%-99% herbicidal effect, phytotoxicity). Besides, the “Echinochloa crus-galli post” value in experiment [3] is 4 (90%-99% herbicidal effect, phytotoxicity). In experiment [4], the “Lindernia procumbens post” value was 4 (90%-99% herbicidal effect, phytotoxicity). The “Scirpus juncoides post” value in experiment [5] is 4 (90%-99% herbicidal effect, phytotoxicity).
For the compound `CCOC(=O)N(c1ccccc1CN1CCC(CC)(C(F)(F)F)OC1=O)S(=O)(=O)C(F)(F)F` (centres unmarked) [Compound 1-93], the “Lindernia procumbens pre” value in experiment [1] is 5 (100% herbicidal effect, phytotoxicity). Further, in experiment [2], the “Scirpus juncoides pre” value is 5 (100% herbicidal effect, phytotoxicity). Besides, the “Echinochloa crus-galli post” value in experiment [3] is listed as 4 (90%-99% herbicidal effect, phytotoxicity). For the same compound, the “Lindernia procumbens post” value in experiment [4] is 5 (100% herbicidal effect, phytotoxicity). The “Scirpus juncoides post” value in experiment [5] is on record as 4 (90%-99% herbicidal effect, phytotoxicity).
On to `O=C1OC(c2c(Cl)cccc2Cl)CCN1Cc1ccccc1NS(=O)(=O)C(F)(F)F` (centres unmarked) [Compound 1-272], for which the “Lindernia procumbens pre” value in experiment [1] is reported as 5 (100% herbicidal effect, phytotoxicity). Further, the “Scirpus juncoides pre” value in experiment [2] is given as 4 (90%-99% herbicidal effect, phytotoxicity). For the same compound, the “Echinochloa crus-galli post” value in experiment [3] is listed as 4 (90%-99% herbicidal effect, phytotoxicity). In addition, in experiment [4], the “Lindernia procumbens post” value is given as 5 (100% herbicidal effect, phytotoxicity). Moreover, in experiment [5], the “Scirpus juncoides post” value is listed as 4 (90%-99% herbicidal effect, phytotoxicity).
Regarding `CCOC(=O)N(c1ccccc1CN1CCC(C)(CC)OC1=O)S(=O)(=O)C(F)(F)F` (centres unmarked) [Compound 1-71], the “Lindernia procumbens pre” value in experiment [1] was 4 (90%-99% herbicidal effect, phytotoxicity). Further, the “Scirpus juncoides pre” value in experiment [2] is reported as 4 (90%-99% herbicidal effect, phytotoxicity). In addition, the “Echinochloa crus-galli post” value in experiment [3] is reported as 4 (90%-99% herbicidal effect, phytotoxicity). For the same compound, the “Lindernia procumbens post” value in experiment [4] is 4 (90%-99% herbicidal effect, phytotoxicity). In addition, in experiment [5], the “Scirpus juncoides post” value is 4 (90%-99% herbicidal effect, phytotoxicity).

Source of the values: US8048825B2, “Haloalkylsulfonanilide derivatives or salt thereof, herbicide comprising the derivatives as active ingredient, and use of the herbicide” (Nihon Nohyaku Co., Ltd., priority 2006, dated 2011).
